Measurements from PubChem BioAssay (NCI).
In brackets after ≈: the same amount, converted by molar mass. Several values for one entry are separate records, joined by “and”; a condition that tells them apart may be missing. Equal values may be shown once.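 1) Cells in 96-well plates. 2) Compound, 48 h, 5 concentrations. 3) Linear interpolation between surrounding doses. 4) Unreached endpoint = highest concentration. At the GI50, growth is halved. Definition used: TGI = concentration required for complete inhibition of growth.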 Activity calls are given as the source filed them. No stated cut-off is given here; in the data, active means GI50 below about 0.43 µM; inactive means the rest.

Key:
Assay in all cases: inhibition of tumour cell growth, NCI panel, 48 h
[1] = test system: MDA-N
[2] = test system: DLD-1 colon
[3] = test system: DMS 114 small cell lung
[4] = test system: DMS 273 small cell lung
[5] = test system: HOP-18 NSCLC
[6] = test system: M19-MEL melanoma
[7] = test system: SNB-78 CNS
[8] = test system: XF 498 CNS

Row | Structure (SMILES) | TGI [1] | TGI [2] | TGI [3] | TGI [4] | TGI [5] | TGI [6] | TGI [7] | TGI [8] | also measured
1 | Nc1nc(C(=O)O)c(N=Nc2ccccc2)c(=O)[nH]1 | > 100 µM |  |  |  |  |  |  |  | 
2 | O=C(Cc1ccccc1)C(c1ccccc1)S(=O)(=O)c1ccccc1 (stereo not given) |  | > 100 µM | > 100 µM | > 100 µM | > 100 µM | > 100 µM | > 100 µM | > 100 µM | 
3 | O=c1[nH]c2ccccc2n1C1CCN(CCCC(c2ccc(F)cc2)c2ccc(F)cc2)CC1 | 21.4 µM | 13.9 µM | 6.52 µM | 11.9 µM | 29 µM | 13.1 µM | 32 µM | 11.6 µM | 
4 | CC1=NNC(=S)NCCCN2CCN(CCCNC(=S)NN=C(C)C=NNC(=S)NCCCN3CCN(CCCNC(=S)NN=C1)CC3)CC2 | > 100 µM |  |  |  |  |  |  |  | 
5 | CC(N)CC(=O)O (stereo not given) |  | > 5000 µM | > 5000 µM | > 5000 µM | > 5000 µM | > 5000 µM | > 5000 µM |  | 
6 | C#CCNC(=O)NC(CCCCNC(=O)OCc1ccccc1)C(=O)OCc1ccccc1 (stereo not given) | > 68.3 µM | > 100 µM | > 100 µM | > 100 µM | > 68.2 µM | 27.6 µM | 80.1 µM | 35.7 µM | 
7 | O=C(CO)C1CC2C=CC1C2 (stereo not given) |  |  | > 100 µM | > 100 µM |  | > 100 µM | > 100 µM | > 100 µM | 
8 | CC(=O)CC(=O)CCC(=O)Nc1cccc(C(F)(F)F)c1 |  | > 100 µM | > 100 µM | > 100 µM | > 100 µM |  | > 100 µM | > 100 µM | 
9 | COc1c(CC=C(C)C)c(O)c(C(CC(C)C)c2c(O)c(CC=C(C)C)c(O)c(C(C)=O)c2O)c(O)c1C(C)=O (stereo not given) | 8.08 µM | 10.9 µM | 0.575 µM | 1.33 µM | 14.7 µM | 5.13 µM | 17.5 µM | 2.09 µM | 
10 | O=[N+]([O-])/C=C/c1ccc(Cl)cc1Cl |  | 84.4 µM | 35.8 µM | 29.7 µM |  | 19.5 µM |  |  | 
11 | COC1=C(OC)[C@]2(OC)c3c(O)c(OC)c4c(c3O[C@@]23O[C@@H](c2ccccc2)CC=C3C1=O)[C@@H](OC)C[C@H](c1ccccc1)O4 | 1.16 µM |  |  |  |  |  |  |  | GI50 [1]: 0.34 µM
12 | Cc1cc2c(c(=O)o1)C1=S(SC(c3ccccc3)=C1)S2 (stereo not given) | > 100 µM |  |  |  |  |  |  |  | 
13 | CCOC(=O)C(CCCNC(=O)OC(C)(C)C)N(Cc1ccc(OC)cc1OC)C(=O)CC(=O)CP(=O)(OCC)OCC (stereo not given) |  | > 100 µM | > 100 µM | > 100 µM | > 100 µM | > 100 µM |  |  | 
14 | C/C(=N\NC(=S)N1CCN(c2ccccn2)CC1)c1ncccn1 | 14.8 µM | 4.98 µM and 14.3 µM | 0.271 µM and 1.08 µM | 3.71 µM and 15.2 µM | 8.39 µM and 20.3 µM | 2.67 µM and 11.2 µM | 23.1 µM | 13.8 µM | GI50 [2]: 0.0258 µM; GI50 [4]: 0.0311 µM; GI50 [5]: 4.4 µM; GI50 [6]: 1.54 µM; GI50 [1]: 0.233 µM
15 | O=C(c1c(O)cc(O)cc1O)C1Cc2ccccc21 (stereo not given) |  | > 100 µM | > 100 µM | > 100 µM | > 100 µM | > 100 µM | > 100 µM |  | 
16 | COc1c(OC(C)C)cc2cc(O)c(C(=O)NC3Cc4ccc(c(Cl)n4)O[C@@H]4C=C5C#C/C(=C\C#CC6OC56C4OC4CC(C)(O)C(O)C(C)O4)C(OC4CC(O)C(N(C)C)C(C)O4)COC3=O)cc2c1OC (stereo not given in full) | > 36.3 µM | 37.5 µg/mL | 10.4 µg/mL | 12.7 µg/mL |  | 37.5 µg/mL | 37.5 µg/mL |  | GI50 [2]: 8.16 µg/mL; GI50 [3]: 0.926 µg/mL; GI50 [4]: 0.279 µg/mL; outcome [5]: inactive; GI50 [6]: 1.68 µg/mL; GI50 [7]: 37.5 µg/mL (≈ 36.4 µM); outcome [8]: inactive

Row | Structure (SMILES) | TGI [1] | TGI [2] | TGI [3] | TGI [4] | TGI [5] | TGI [6] | TGI [7] | TGI [8] | also measured
17 | CC(=O)[CH-]C(C)=O.CC(=O)[CH-]C(C)=O.CC(=O)[CH-]C(C)=O.[Ga+3] |  | > 100 µM | > 100 µM | > 100 µM |  |  |  | > 100 µM | GI50 [2]: > 100 µM; GI50 [3]: > 100 µM; GI50 [4]: > 100 µM; GI50 [8]: > 100 µM
18 | CC1CCC2(C)C(CC=C(C=O)C2(O)C=O)C12CO2 (stereo not given) |  |  | 4.84 µM | 7.61 µM |  | 5.75 µM | 5.46 µM | 7.21 µM | 
19 | N#CNC1=NC(N)C(c2nc3ccccc3[nH]2)=C(CCCC(=O)Nc2cccc([N+](=O)[O-])c2)N1 (stereo not given) |  | > 100 µM | > 100 µM | > 100 µM | > 100 µM | > 100 µM |  | > 100 µM | 
20 | CN(C)c1nc(N)c(C#N)c(C#N)c1C#N | > 10 µM |  |  |  |  |  |  |  | 
21 | CC(C)OC(=O)C1Cc2c([nH]c3ccccc23)C(c2ccccc2)N1 (stereo not given) |  | > 100 µM | > 100 µM | > 100 µM |  | > 100 µM | > 100 µM | > 100 µM | 
22 | CCOC(=O)C(Cc1ccc(N(CCCl)CCCl)cc1)NC(=O)C(Cc1ccccc1)NC(C)=O (stereo not given) | > 0.371 µM |  |  |  |  |  |  |  | 
23 | CN1CCCC1c1cccnc1.O=C(O)c1ccccc1O.O=C([O-])c1ccccc1[OH2+].O=C([O-])c1ccccc1[OH2+].[Mn+2] (stereo not given) | > 100 µM |  |  |  |  |  |  |  | GI50 [1]: > 100 µM
24 | Cc1ccc(S(=O)(=O)NC(=O)OC23COCN2COC3)cc1 | > 100 µM |  |  |  |  |  |  |  | 
25 | NC(=O)CC(N)c1nn[nH]n1 (stereo not given) | > 100 µM |  |  |  |  |  |  |  | 
26 | O=[N+]([O-])c1cc(Cc2cc([N+](=O)[O-])c3cccnc3c2O)c(O)c2ncccc12 | > 80 µM |  |  |  |  |  |  |  | 
27 | C[P+]1(c2ccccc2)CCCCC1 |  | > 100 µM | > 100 µM | > 100 µM |  | > 100 µM | > 100 µM |  | 
28 | C=C1C=CC2(Br)OC3CC(C)(Cl)C(Br)CC13C2(C)C (stereo not given) |  | > 100 µM | 32.4 µM | > 100 µM |  | 44.9 µM | 61.7 µM | 27.9 µM | 
29 | Cn1nc(-c2ccccc2)c(C(=O)/C=C/c2ccc(Cl)cc2)c(N2CCOCC2)c1=O |  | 13.6 µM | 9.83 µM | 13.8 µM | 17 µM | 20.7 µM |  |  | 
30 | O=c1[nH]c(=S)[nH]c(-c2ccccc2)c1Cc1c(O)ccc2ccccc12 | 89.5 µM |  |  |  |  |  |  |  | 
31 | COc1ccc(OC)c(Cc2cnc3nc(N)nc(N)c3c2C)c1 | > 57.7 µM |  |  |  |  |  |  |  | 
32 | Cc1cc(O)c2c3c(ccc2c1)C(=O)c1c(O)cccc1C3=O | 0.353 µM |  |  |  |  |  |  |  | 
